Measured values from US20240262817A1, “QUINAZOLINE DERIVATIVES TARGETING R(CCUG) REPEATS IN MYOTONIC DYSTROPHY TYPE 2” (University of Florida Research Foundation, Incorporated, priority 2021, published 2024).
“Also recorded” adds a separate entry of the source.

How the values were obtained:
[1] = system: IR exon 11 inclusion in wild-type fibroblasts; assay: IR exon 11 inclusion via RT-PCR in wild-type fibroblasts; format: cell-based
Protocol: (§1) Cell lines and cell culture: Compounds were tested in two cell lines: (i) DM2 patient-derived fibroblasts (generous gift from University of Florida, Center for NeuroGenetics) and (ii) fibroblasts from a healthy donor (wild-type; WT GM07492; Coriell Institute). Cells were maintained at 37° ° C. with 5% CO2. DM2 fibroblasts were cultured in DMEM/high glucose (HyClone) supplemented with 20% FBS (Sigma) and 1% Antibiotic-Antimycotic solution (Corning). Wild-type fibroblasts were cultured in MEM (Corning) supplemented with 10% FBS, 1% Glutagro (Corning), and 1% Antibiotic-Antimycotic solution.
(§2) Evaluation of pre-mRNA splicing via RT-PCR: Pre-mRNA splicing was analyzed as previously described.^10 Briefly, cells were grown in 6-well plates and treated with the desired compound in growth medium at ˜40% confluency. After 48 h, the cells were lysed, and total RNA was harvested using a Zymo Quick RNA Miniprep Kit. Approximately 1 μg of total RNA was reverse transcribed using a qScript cDNA synthesis kit (20 μL of total reaction volume, Quanta BioSciences); 2 μL of the RT reaction was used for PCR using GoTaq DNA polymerase (Promega). […] Gels were quantified using ImageJ. Percent rescue was calculated by dividing the difference between treated and untreated DM2 samples by the difference between untreated DM2 and WT samples (Equation 2).

r(CCUG)12 = assay: Microscale thermophoresis (MST) affinity for r(CCUG)12; format: binding; settings: read-out: Kd,app for r(CCUG)12
Protocol: (§3) Affinity measurements: Binding affinity measurements were performed via microscale thermophoresis (MST) on a Monolith NT.115 system (NanoTemperTechnologies) with Cy5-labeled (CCUG)12 (SEQ ID NO: 15) (5′-Cy5-GCG(CCUG)12CGC. SEQ ID NO:13; Dharmacon) and Cy5-labeled base pair control (BP; 5′-Cy5-GCG(CCUG)(GCAG)5CGC, SEQ ID NO:14; Dharmacon), which were deprotected according to the manufacturer's protocol and then desalted using a PD-10 column (GE LifeSciences) per the manufacturer's recommended procedure. RNA (5 nM) was prepared in 8 mM Na2HPO4, 185 mM NaCl, 1 mM EDTA and folded by heating at 60° C. for 5 min and slowly cooling to room temperature. Compound 1:1 dilution was prepared using 1×MST Buffer (8 mM Na2HPO4, 185 mM NaCl, 1 mM EDTA) and 0.1% (v/v) Tween-20 was added. After cooling the RNA solution was added to the compound solution (0.05% (v/v) Tween-20 final concentration). Samples were incubated for 30 min at room temperature and then loaded into standard capillaries (NanoTemper Technologies). […] Fluorescence was detected using excitation wavelengths of 605-645 nm and emission wavelengths of 680-685 nm. The resulting data were analyzed by thermophoresis analysis and fitted using a quadratic binding equation in the MST analysis software (NanoTemper Technologies). Dissociation constants were then determined using equation 3. […]

[2] = system: r(CCUG)exp-MBNL1 nuclear foci in DM2 patient-derived fibroblasts; assay: Nuclear foci by RNA FISH and MBNL1 immunofluorescence; format: cell-based; design: dose or concentration left out as unconfirmed
Protocol: as §1
Evaluation of nuclear foci via RNA fluorescence in situ hybridization (FISH): RNA FISH was used to determine the small molecules' effects on the number of nuclear foci as previously described.^10 The number of foci were counted in 40 nuclei/replicate (120 total nuclei counted); n=3 replicates; 1 independent experiment.

[3] = system: IR exon 11 alternative splicing in DM2 patient-derived fibroblasts; assay: Rescue of IR exon 11 splicing via RT-PCR in DM2 fibroblasts; format: cell-based
Protocol: as §1
Evaluation of pre-mRNA splicing via RT-PCR: Pre-mRNA splicing was analyzed as previously described.^10 Briefly, cells were grown in 6-well plates and treated with the desired compound in growth medium at ˜40% confluency. After 48 h, the cells were lysed, and total RNA was harvested using a Zymo Quick RNA Miniprep Kit. Approximately 1 μg of total RNA was reverse transcribed using a qScript cDNA synthesis kit (20 μL of total reaction volume, Quanta BioSciences); 2 μL of the RT reaction was used for PCR using GoTaq DNA polymerase (Promega). RT-PCR products were observed after 35 cycles of 95° C. for 30 s, 58° C. for 30s, 72 °C for 1 min, and a final extension at 72° C. for 5 min. Products were separated on a 2% agarose gel (110 V for 1 h in 13TBE buffer), visualized by staining with ethidium bromide, and imaged using a Typhoon 9410 variable mode imager. Gels were quantified using ImageJ. Percent rescue was calculated by dividing the difference between treated and untreated DM2 samples by the difference between untreated DM2 and WT samples (Equation 2).

[4] = system: CNBP intron 1 in DM2 patient-derived fibroblasts; assay: CNBP intron 1 abundance via RT-qPCR in DM2 fibroblasts; format: cell-based; design: dose or concentration left out as unconfirmed
Protocol: as §1
Evaluation of CNBP abundance via RT-qPCR: CNBP abundance was evaluated as previously described.^10 Briefly, cells were grown in 6-well plates and treated with the desired compound in growth medium at 40% confluency. […] Approximately 1 μg of total RNA was reverse transcribed using a qScript cDNA synthesis kit (20 μL total reaction volume, Quanta BioSciences); 2 μL of the reverse transcription (RT) reaction was used for each primer pair (Table S1) for quantitative PCR with SYBR Green Master Mix, performed on a QuantStudio 5, 384-well Block Real-Time PCR System (Applied Biosciences). Relative abundance was determined by normalizing to GAPDH (n=6 replicates per concentration; 2 independent experiments).

[5] = system: MAP4K4 exon 22a splicing (NOVA-dependent) in DM2 fibroblasts; assay: MAP4K4 exon 22a splicing via RT-PCR in DM2 fibroblasts; format: cell-based
Protocol: as §1, §2

[6] = system: DM2 patient-derived fibroblasts; assay: Cell viability by CellTiter-Glo; format: cell-based
Protocol: as §1
Evaluation of cell viability: Compound toxicity in DM2 fibroblasts was evaluated using a CellTiter-Glo Kit (Promega) as described in the manufacturer's protocol. Briefly, after 48 h treatment in 96-wells plates, 100 μL of the CellTiter-Glo reagent was added to each well. The plate was then incubated at room temperature for 10 min, and luminescence was measured using BioTek FLX-800 luminescence plate reader (n=6 replicates; 1 independent experiment).

[7] = target: base-paired RNA that does not contain internal loops; assay: Microscale thermophoresis (MST) affinity for base pair control RNA; format: binding
Protocol: as §3

Cc1ccc2nc(Nc3ccc4nc(C)sc4c3)nc(NCCCO)c2c1 [Compound 63, 3-((6-methyl-2-((2-methylbenzo[d]thiazol-6-yl)amino)quinazolin-4-yl)amino)propan-1-ol]
effect on IR exon 11 inclusion [1]: did not affect; also recorded: no effect
Kd (r(CCUG)12): 192 ± 20 nM
reduction of number of nuclear foci per cell ([2]; 63 vs untreated): ~30%
number of r(CCUG)exp-MBNL1 nuclear foci per cell ([2]; untreated 7±1): 5±0.5
rescue of IR exon 11 splicing ([3]; at 1 μM): ~30%
rescue of IR splicing ([3]; at 1 μM dose, p=0.026): 33±5
improvement of IR splicing ([3]; at 5 μM): significantly improved IR splicing
abundance of CNBP intron 1 [4]: significantly reduced
effect on MAP4K4 exon 22a splicing [5]: did not affect; also recorded: does not affect
toxicity as stated in legend of FIG. 3C ([6]; DM2 fibroblasts): non-toxic
toxicity in DM2 patient-derived fibroblasts ([6]; at 5 μM): no toxicity
Kd [7]: > 20000 nM
binding to base-paired RNA that does not contain internal loops [7]: no binding was observed
